# Measurements: patent publication US12371428B2 (Exelixis, Inc., priority 2019, dated 2025)
# What was measured:
# [1] = target: KDR (phospho-KDR, VEGF165-stimulated HUVEC cells) (Homo sapiens (Human), UniProt P35968); test: KDR autophosphorylation ELISA in HUVEC cells (Example G); format: cell-based; conditions: cellular activity; KDR autophosphorylation ELISA in HUVEC cells
# In short: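 Read-out: phospho-KDR in cell lysates by DuoSet IC ELISA, normalised between VEGF-stimulated DMSO wells (100%) and unstimulated wells (0%). Human endothelial cells were starved overnight in serum-free medium, exposed to compound for 1 h, and then pulsed with 100 ng/mL VEGF165 for 5 min.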
# [2] = target: Human MET (residues 956-1390) (Homo sapiens (Human), UniProt P08581); test: Human Met kinase assay, HTRF KinEase (Example D-2); format: biochemical; conditions: protocol of Example D-2 (other compounds); read-out: c-Met IC50
# Sequence of Human MET (residues 956-1390) (P08581 956-1390): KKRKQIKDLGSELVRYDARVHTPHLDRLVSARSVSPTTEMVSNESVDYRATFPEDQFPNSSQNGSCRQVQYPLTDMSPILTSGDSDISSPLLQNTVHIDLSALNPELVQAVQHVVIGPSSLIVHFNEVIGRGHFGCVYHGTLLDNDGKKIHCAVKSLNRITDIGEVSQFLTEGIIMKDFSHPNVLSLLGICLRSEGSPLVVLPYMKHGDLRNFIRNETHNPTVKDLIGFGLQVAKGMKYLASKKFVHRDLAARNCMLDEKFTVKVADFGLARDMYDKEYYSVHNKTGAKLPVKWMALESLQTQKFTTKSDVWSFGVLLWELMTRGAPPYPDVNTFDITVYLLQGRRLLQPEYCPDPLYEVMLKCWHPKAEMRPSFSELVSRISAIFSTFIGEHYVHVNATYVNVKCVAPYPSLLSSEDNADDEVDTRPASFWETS
# In short: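 HTRF KinEase assay on MET residues 956-1390 (0.1 ng/well) in buffer with 5 mM MgCl2, 1 mM DTT and 1 mM MnCl2, with biotinylated peptide substrate, ATP at Km, 10 compound concentrations and 3% DMSO final, run 40 min at room temperature. The […] signal was normalized to DMSO and to 1 μM reference compound, and IC50 came from a 4-parameter logistic fit.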
# [3] = target: Met (phospho-Met, HGF-stimulated PC-3 prostate cancer cells) (Homo sapiens (Human), UniProt P08581); test: Met autophosphorylation ELISA in PC-3 cells (Example F); format: cell-based; conditions: cellular activity; Met autophosphorylation ELISA in PC-3 cells; read-out: c-Met IC50
# Sequence of Met (phospho-Met, HGF-stimulated PC-3 prostate cancer cells) (P08581 25-1390): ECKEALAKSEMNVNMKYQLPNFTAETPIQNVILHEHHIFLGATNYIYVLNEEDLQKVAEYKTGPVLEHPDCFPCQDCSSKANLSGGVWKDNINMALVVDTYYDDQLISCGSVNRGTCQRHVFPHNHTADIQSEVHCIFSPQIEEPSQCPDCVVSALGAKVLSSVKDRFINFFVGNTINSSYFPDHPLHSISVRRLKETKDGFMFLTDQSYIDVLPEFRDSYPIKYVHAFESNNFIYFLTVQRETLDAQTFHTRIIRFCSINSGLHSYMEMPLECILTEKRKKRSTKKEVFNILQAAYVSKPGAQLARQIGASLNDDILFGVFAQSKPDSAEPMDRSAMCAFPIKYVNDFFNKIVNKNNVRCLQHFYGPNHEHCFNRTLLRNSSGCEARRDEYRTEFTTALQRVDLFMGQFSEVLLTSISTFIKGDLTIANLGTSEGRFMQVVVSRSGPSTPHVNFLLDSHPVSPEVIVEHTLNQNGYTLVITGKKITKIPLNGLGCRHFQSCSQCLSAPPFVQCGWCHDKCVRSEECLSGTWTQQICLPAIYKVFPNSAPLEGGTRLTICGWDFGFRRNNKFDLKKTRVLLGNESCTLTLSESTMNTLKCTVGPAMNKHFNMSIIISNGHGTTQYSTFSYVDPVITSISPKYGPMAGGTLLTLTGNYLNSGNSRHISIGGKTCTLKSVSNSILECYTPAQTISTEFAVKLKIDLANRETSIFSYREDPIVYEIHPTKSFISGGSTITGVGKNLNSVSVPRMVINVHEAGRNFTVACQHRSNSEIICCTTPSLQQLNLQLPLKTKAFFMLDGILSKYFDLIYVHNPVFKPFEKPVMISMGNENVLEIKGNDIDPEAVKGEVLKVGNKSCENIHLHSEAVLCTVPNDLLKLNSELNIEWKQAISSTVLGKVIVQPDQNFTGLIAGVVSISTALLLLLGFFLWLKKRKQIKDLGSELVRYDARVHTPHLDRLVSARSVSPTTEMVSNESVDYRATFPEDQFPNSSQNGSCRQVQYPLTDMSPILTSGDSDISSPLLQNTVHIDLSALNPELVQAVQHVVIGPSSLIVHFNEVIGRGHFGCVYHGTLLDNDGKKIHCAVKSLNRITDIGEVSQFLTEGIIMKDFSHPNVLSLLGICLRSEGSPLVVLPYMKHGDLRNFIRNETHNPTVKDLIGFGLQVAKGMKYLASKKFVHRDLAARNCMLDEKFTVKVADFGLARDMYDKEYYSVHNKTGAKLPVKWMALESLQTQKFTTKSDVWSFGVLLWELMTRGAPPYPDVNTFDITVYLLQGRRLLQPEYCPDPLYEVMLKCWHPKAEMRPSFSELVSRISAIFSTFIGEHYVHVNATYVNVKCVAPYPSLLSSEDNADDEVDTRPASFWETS
# In short: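 Sandwich ELISA for phospho-Met (panTyr) in PC-3 lysates. Cells starved 3 h serum-free, compound 1 h (8-pt curve, 0.3% DMSO), HGF 100 ng/mL 10 min. 100% = HGF + DMSO; 0% = HGF + reference inhibitor. IC50 by 4-parameter fit.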
# Sequence of KDR (phospho-KDR, VEGF165-stimulated HUVEC cells) (P35968 20-1356): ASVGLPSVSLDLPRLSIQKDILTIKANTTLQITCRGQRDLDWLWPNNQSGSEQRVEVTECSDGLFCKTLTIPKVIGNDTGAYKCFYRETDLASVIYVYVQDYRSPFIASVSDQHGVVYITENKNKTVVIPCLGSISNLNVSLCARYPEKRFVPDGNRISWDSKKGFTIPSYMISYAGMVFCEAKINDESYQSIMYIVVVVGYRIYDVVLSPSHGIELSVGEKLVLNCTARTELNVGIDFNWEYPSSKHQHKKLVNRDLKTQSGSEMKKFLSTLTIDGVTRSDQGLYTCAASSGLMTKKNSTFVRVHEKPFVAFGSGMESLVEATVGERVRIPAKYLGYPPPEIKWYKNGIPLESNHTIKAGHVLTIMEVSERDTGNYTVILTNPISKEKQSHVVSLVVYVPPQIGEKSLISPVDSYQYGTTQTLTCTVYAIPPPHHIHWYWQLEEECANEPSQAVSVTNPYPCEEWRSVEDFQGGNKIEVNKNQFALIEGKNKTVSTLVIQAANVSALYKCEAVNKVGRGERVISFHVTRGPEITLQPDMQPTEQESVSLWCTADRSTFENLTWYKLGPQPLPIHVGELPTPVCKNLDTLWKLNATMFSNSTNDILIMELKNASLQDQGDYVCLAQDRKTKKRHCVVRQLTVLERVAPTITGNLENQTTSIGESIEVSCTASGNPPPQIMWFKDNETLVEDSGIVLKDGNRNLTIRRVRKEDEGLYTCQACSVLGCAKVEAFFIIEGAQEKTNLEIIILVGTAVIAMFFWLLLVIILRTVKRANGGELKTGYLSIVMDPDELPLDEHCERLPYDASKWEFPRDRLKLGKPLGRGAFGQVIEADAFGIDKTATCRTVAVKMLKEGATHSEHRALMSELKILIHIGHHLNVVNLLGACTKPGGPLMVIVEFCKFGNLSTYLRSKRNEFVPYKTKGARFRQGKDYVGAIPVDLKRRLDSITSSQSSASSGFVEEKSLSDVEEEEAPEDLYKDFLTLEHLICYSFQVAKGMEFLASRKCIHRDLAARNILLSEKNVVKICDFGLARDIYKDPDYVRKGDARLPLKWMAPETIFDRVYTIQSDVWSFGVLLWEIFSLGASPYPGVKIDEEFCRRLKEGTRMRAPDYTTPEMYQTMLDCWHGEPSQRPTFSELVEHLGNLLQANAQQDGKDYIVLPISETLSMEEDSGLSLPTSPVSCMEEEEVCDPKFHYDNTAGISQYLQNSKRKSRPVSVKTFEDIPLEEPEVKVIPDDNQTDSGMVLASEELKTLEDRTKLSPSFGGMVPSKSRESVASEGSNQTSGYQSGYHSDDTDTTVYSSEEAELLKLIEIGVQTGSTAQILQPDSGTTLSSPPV
SMILES,IC50 [1] [µM],IC50 [2] [µM],IC50 [3] [µM]
"COc1cc2nccc(Oc3ccc(NC(=O)c4cn(C)c(CO)c(-c5ccc(F)cc5C)c4=O)cc3F)c2nc1OC [Compound 282, N-[4-[(6,7-Dimethoxy-1,5-naphthyridin-4-yl)oxy]-3-fluorophenyl]-5-(4-fluoro-2-methylphenyl)-6-(hydroxymethyl)-1-methyl-4-oxopyridine-3-carboxamide]",< 0.1,< 0.1,< 0.1
"CCn1cc(C(=O)Nc2ccc(Oc3ccnc4cc(OC)c(OC)nc34)c(F)c2)c(=O)c(-c2ccc(F)cc2C)c1CO [Compound 283, N-[4-[(6,7-Dimethoxy-1,5-naphthyridin-4-yl)oxy]-3-fluorophenyl]-1-ethyl-5-(4-fluoro-2-methylphenyl)-6-(hydroxymethyl)-4-oxopyridine-3-carboxamide]",0.1 to 0.3,< 0.1,< 0.1
"CCn1cc(C(=O)Nc2ccc(Oc3ccnc4cc(OC)c(OC)nc34)cc2)c(=O)c(-c2ccc(F)cc2C)c1CO [Compound 284, N-[4-[(6,7-Dimethoxy-1,5-naphthyridin-4-yl)oxy]phenyl]-1-ethyl-5-(4-fluoro-2-methylphenyl)-6-(hydroxymethyl)-4-oxopyridine-3-carboxamide]",> 0.3,< 0.1,< 0.1
"CCn1cc(C(=O)Nc2ccc(Oc3ccnc4cc(OC)cnc34)c(F)c2)c(=O)c(-c2ccc(F)cc2C)c1CO [Compound 285, 1-Ethyl-N-[3-fluoro-4-[(7-methoxy-1,5-naphthyridin-4-yl)oxy]phenyl]-5-(4-fluoro-2-methylphenyl)-6-(hydroxymethyl)-4-oxopyridine-3-carboxamide]",> 0.3,< 0.1,< 0.1
"COc1cc2nccc(Oc3ccc(NC(=O)c4c(C)ccn(-c5ccc(F)cc5)c4=O)cc3F)c2nc1OC [Compound 286, N-[4-[(6,7-Dimethoxy-1,5-naphthyridin-4-yl)oxy]-3-fluorophenyl]-1-(4-fluorophenyl)-4-methyl-2-oxopyridine-3-carboxamide]",< 0.1,< 0.1,< 0.1
"COc1ccc2nccc(Oc3ccc(NC(=O)c4c(C)ccn(-c5ccc(F)cc5)c4=O)cc3F)c2n1 [Compound 287, N-[3-Fluoro-4-[(6-methoxy-1,5-naphthyridin-4-yl)oxy]phenyl]-1-(4-fluorophenyl)-4-methyl-2-oxopyridine-3-carboxamide]",< 0.1,0.1 to 0.3,< 0.1
"COc1cc2nccc(Oc3ccc(NC(=O)c4c(C)cc(C)n(-c5ccc(F)cc5)c4=O)cc3)c2nc1OC [Compound 288, N-[4-[(6,7-Dimethoxy-1,5-naphthyridin-4-yl)oxy]phenyl]-1-(4-fluorophenyl)-4,6-dimethyl-2-oxopyridine-3-carboxamide]",< 0.1,< 0.1,< 0.1
"COc1cnc2c(Oc3ccc(NC(=O)c4c(C)cc(C)n(-c5ccc(F)cc5)c4=O)cc3)ccnc2c1 [Compound 289, 1-(4-Fluorophenyl)-N-[4-[(7-methoxy-1,5-naphthyridin-4-yl)oxy]phenyl]-4,6-dimethyl-2-oxopyridine-3-carboxamide]",< 0.1,< 0.1,< 0.1
"COc1ccc2nccc(Oc3ccc(NC(=O)c4c(C)cc(C)n(-c5ccc(F)cc5)c4=O)cc3)c2n1 [Compound 290, 1-(4-Fluorophenyl)-N-[4-[(6-methoxy-1,5-naphthyridin-4-yl)oxy]phenyl]-4,6-dimethyl-2-oxopyridine-3-carboxamide]",< 0.1,0.1 to 0.3,< 0.1
"COc1cnc2c(Oc3ccc(NC(=O)c4cccn(-c5ccc(F)cc5)c4=O)cc3F)ccnc2c1 [Compound 291, N-[3-Fluoro-4-[(7-methoxy-1,5-naphthyridin-4-yl)oxy]phenyl]-1-(4-fluorophenyl)-2-oxopyridine-3-carboxamide]",< 0.1,< 0.1,< 0.1
"COc1ccc2nccc(Oc3ccc(NC(=O)c4cccn(-c5ccc(F)cc5)c4=O)cc3F)c2n1 [Compound 292, N-[3-Fluoro-4-[(6-methoxy-1,5-naphthyridin-4-yl)oxy]phenyl]-1-(4-fluorophenyl)-2-oxopyridine-3-carboxamide]",< 0.1,< 0.1,< 0.1
"COc1cc2nccc(Oc3ccc(NC(=O)c4cccn(-c5ccc(F)cc5)c4=O)cc3F)c2nc1OC [Compound 293, N-[4-[(6,7-Dimethoxy-1,5-naphthyridin-4-yl)oxy]-3-fluorophenyl]-1-(4-fluorophenyl)-2-oxopyridine-3-carboxamide]",< 0.1,< 0.1,< 0.1
"COc1cnc2c(Oc3ccc(NC(=O)c4c(C)ccn(-c5ccc(F)cc5)c4=O)cc3F)ccnc2c1 [Compound 294, N-[3-Fluoro-4-[(7-methoxy-1,5-naphthyridin-4-yl)oxy]phenyl]-1-(4-fluorophenyl)-4-methyl-2-oxopyridine-3-carboxamide]",< 0.1,< 0.1,< 0.1
"Cc1cc(C)n(-c2ccc(F)cc2)c(=O)c1C(=O)Nc1ccc(Oc2ccnc3cccnc23)c(F)c1 [Compound 295, N-[3-Fluoro-4-(1,5-naphthyridin-4-yloxy)phenyl]-1-(4-fluorophenyl)-4,6-dimethyl-2-oxopyridine-3-carboxamide]",< 0.1,< 0.1,< 0.1
"COc1ccc2nccc(Oc3ccc(NC(=O)c4c(C)cc(C)n(-c5ccc(F)cc5C)c4=O)cc3F)c2n1 [Compound 296, N-[3-Fluoro-4-[(6-methoxy-1,5-naphthyridin-4-yl)oxy]phenyl]-1-(4-fluoro-2-methylphenyl)-4,6-dimethyl-2-oxopyridine-3-carboxamide]",< 0.1,0.1 to 0.3,< 0.1
"Cc1ccc2nccc(Oc3ccc(NC(=O)c4c(C)cc(C)n(-c5ccc(F)cc5)c4=O)cc3F)c2n1 [Compound 297, N-[3-Fluoro-4-[(6-methyl-1,5-naphthyridin-4-yl)oxy]phenyl]-1-(4-fluorophenyl)-4,6-dimethyl-2-oxopyridine-3-carboxamide]",< 0.1,< 0.1,< 0.1
"COc1cc2nccc(Oc3ccc(NC(=O)c4c(C)cc(C)n(-c5ccc(F)cc5C)c4=O)cc3F)c2nc1OC [Compound 298, N-[4-[(6,7-Dimethoxy-1,5-naphthyridin-4-yl)oxy]-3-fluorophenyl]-1-(4-fluoro-2-methylphenyl)-4,6-dimethyl-2-oxopyridine-3-carboxamide]",< 0.1,0.1 to 0.3,< 0.1
"COc1cc2nccc(Oc3ccc(NC(=O)c4c(C)ccn(-c5ccc(F)cc5)c4=O)cc3)c2nc1OC [Compound 299, N-[4-[(6,7-Dimethoxy-1,5-naphthyridin-4-yl)oxy]phenyl]-1-(4-fluorophenyl)-4-methyl-2-oxopyridine-3-carboxamide]",< 0.1,< 0.1,< 0.1
"COc1cnc2c(Oc3ccc(NC(=O)c4c(C)ccn(-c5ccc(F)cc5)c4=O)cc3)ccnc2c1 [Compound 300, 1-(4-Fluorophenyl)-N-[4-[(7-methoxy-1,5-naphthyridin-4-yl)oxy]phenyl]-4-methyl-2-oxopyridine-3-carboxamide]",< 0.1,0.1 to 0.3,< 0.1
"COCc1ncc(C(=O)Nc2ccc(Oc3ccnc4cc(OC)c(OC)nc34)c(F)c2)c(O)c1-c1ccc(F)cc1 [Compound 301, N-[4-[(6,7-Dimethoxy-1,5-naphthyridin-4-yl)oxy]-3-fluorophenyl]-5-(4-fluorophenyl)-4-hydroxy-6-(methoxymethyl)pyridine-3-carboxamide]",< 0.1,< 0.1,< 0.1
"COc1ccc2nccc(Oc3ccc(NC(=O)c4c(C)nc(C)c(-c5ccc(F)cc5)c4O)cc3)c2n1 [Compound 340, 5-(4-fluorophenyl)-4-hydroxy-N-[4-[(6-methoxy-1,5-naphthyridin-4-yl)oxy]phenyl]-2,6-dimethylpyridine-3-carboxamide]",< 0.1,< 0.1,< 0.1
"COc1ccc2nccc(Oc3ccc(NC(=O)c4cn(C(C)C)c(C)c(-c5ccc(F)cc5)c4=O)cc3)c2n1 [Compound 341, 5-(4-fluorophenyl)-N-[4-[(6-methoxy-1,5-naphthyridin-4-yl)oxy]phenyl]-6-methyl-4-oxo-1-propan-2-ylpyridine-3-carboxamide]",> 0.3,< 0.1,< 0.1
"COc1ccc2nccc(Oc3ccc(NC(=O)c4cnc(C)c(-c5ccc(F)cc5)c4O)cc3)c2n1 [Compound 342, 5-(4-fluorophenyl)-4-hydroxy-N-[4-[(6-methoxy-1,5-naphthyridin-4-yl)oxy]phenyl]-6-methylpyridine-3-carboxamide]",< 0.1,< 0.1,< 0.1
"COc1ccc2nccc(Oc3ccc(NC(=O)c4ccc(C)n(-c5ccc(F)cc5)c4=O)cc3)c2n1 [Compound 343, 1-(4-fluorophenyl)-N-[4-[(6-methoxy-1,5-naphthyridin-4-yl)oxy]phenyl]-6-methyl-2-oxopyridine-3-carboxamide]",< 0.1,< 0.1,< 0.1
